From patent US7297700B2, “Bicycloheteroaryl compounds as P2X7 modulators and uses thereof” (Renovis, Inc., priority 2005, dated 2007)

Each molecule was assayed on IL-1β release from THP-1 cells (assay: IL-1β Release Assay (Alternate Method), THP-1 cells). Conditions: Homo sapiens; at 0.3 μM; THP-1 cells, BzATP-stimulated; read-out: IL-1β % inhibition.
Type: cell-based, human
How it was run: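 IL-1β release, measured by ELISA, follows 45 min BzATP (250 uM final) stimulation of THP-1 cells given 30 min compound pretreatment. Cells were first primed 16 h with LPS and IFN-γ (100 ng/mL each), then 2 h with fresh LPS; inhibition expressed in percent after background correction.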

| Compound | inhibition at 0.3 µM [%] |
| --- | --- |
| O=C(CC12CC3CC(CC(C3)C1)C2)Nc1cccc2c1C=CN(Cc1ccc(F)cc1)C2 [Compound 636] | 0 to 25 |

Same assay, conditions: Homo sapiens; at 0.3 μM; THP-1 cells; read-out: IL-1β % inhibition

| Compound | inhibition at 0.3 µM [%] |
| --- | --- |
| COCC(O)CN1CCc2c(ncnc2NC(=O)CC23CC4CC(CC(C4)C2)C3)C1 (centres unmarked) [Compound 13, 2-adamantan-1-yl-N-[7-(2-hydroxy-3-methoxy-propyl)-5,6,7,8-tetrahydro-pyrido[3,4-d]pyrimidin-4-yl]-acetamide] | 0 to 25 |

Same assay, conditions: at 0.3 μM; THP-1 cells

| Compound | IL-1β % inhibition |
| --- | --- |
| O=C(CC12CC3CC(CC(C3)C1)C2)Nc1ncnc2c1CCN(Cc1ccncc1)C2 [Compound 43] | + (compound exhibited 0-25% inhibition at 0.3 μM) |
| O=C(CC12CC3CC(CC(C3)C1)C2)Nc1ncnc2c1CCN(S(=O)(=O)c1ccc(F)c(Cl)c1)C2 [Compound 193] | + (compound exhibited 0-25% inhibition at 0.3 μM) |
| O=C(CC12CC3CC(CC(C3)C1)C2)Nc1ncnc2c1CCN(C(=O)c1ccnc(Cl)c1)C2 [Compound 298] | ++++ (compound exhibited 75% or greater inhibition at 0.3 μM) |
| Cc1cc(C(=O)N2CCc3c(ncnc3NC(=O)CC34CC5CC(CC(C5)C3)C4)C2)nn1C [Compound 284] | ++ (compound exhibited 25-50% inhibition at 0.3 μM) |
| CC12CC3CC(C)(C1)CC(CC(=O)Nc1ncnc4c1CCN(C(=O)c1cccc(Cl)c1Cl)C4)(C3)C2 [Compound 391] | + (compound exhibited 0-25% inhibition at 0.3 μM) |
| COc1ccc(CN2CCc3c(ncnc3NC(=O)CC34CC5CC(CC(C5)C3)C4)C2)cc1 [Compound 40] | + (compound exhibited 0-25% inhibition at 0.3 μM) |
| Cc1ccc(CN2CCc3c(ncnc3NC(=O)CC34CC5CC(CC(C5)C3)C4)C2)s1 [Compound 66] | + (compound exhibited 0-25% inhibition at 0.3 μM) |
| CCS(=O)(=O)N1CCc2c(ncnc2NC(=O)CC23CC4CC(CC(C4)C2)C3)C1 [Compound 148] | + (compound exhibited 0-25% inhibition at 0.3 μM) |
| CC(C)Oc1ccc(CN2CCc3c(ncnc3NC(=O)CC34CC5CC(CC(C5)C3)C4)C2)cc1 [Compound 113] | + (compound exhibited 0-25% inhibition at 0.3 μM) |
| Cc1c(S(=O)(=O)N2CCc3c(ncnc3NC(=O)CC34CC5CC(CC(C5)C3)C4)C2)cnn1-c1ccccc1 [Compound 160] | ++++ (compound exhibited 75% or greater inhibition at 0.3 μM) |
| COc1ccc(C(=O)N2CCc3c(ncnc3NC(=O)CC34CC5CC(CC(C5)C3)C4)C2)c(OC)c1 [Compound 275] | +++ (compound exhibited 50-75% inhibition at 0.3 μM) |
| CC12CC3CC(C)(C1)CC(C(C)(C)C(=O)Nc1ncnc4c1CCN(Cc1ccccc1)C4)(C3)C2 [Compound 343] | + (compound exhibited 0-25% inhibition at 0.3 μM) |
| COc1ccc(CN2CCc3c(ncnc3NC(=O)CC34CC5CC(CC(C5)C3)C4)C2)cc1OC [Compound 36] | + (compound exhibited 0-25% inhibition at 0.3 μM) |
| COCCC(=O)N1CCc2c(ncnc2NC(=O)CC23CC4CC(CC(C4)C2)C3)C1 [Compound 307] | ++ (compound exhibited 25-50% inhibition at 0.3 μM) |
| O=C(NCC1(O)CCCCCC1)c1ncnc2c1CCN(Cc1ccccc1)C2 [Compound 58] | + (compound exhibited 0-25% inhibition at 0.3 μM) |
| Cc1ccccc1CN1CCc2c(ncnc2NC(=O)C(C)(C)C23CC4CC(CC(C4)C2)C3)C1 [Compound 349] | + (compound exhibited 0-25% inhibition at 0.3 μM) |
| CC(C)(C(=O)Nc1ncnc2c1CCN(C(=O)c1ccc(Cl)c(Cl)c1)C2)C12CC3CC(CC(C3)C1)C2 [Compound 360] | + (compound exhibited 0-25% inhibition at 0.3 μM) |
| Cc1noc(C)c1S(=O)(=O)N1CCc2c(ncnc2NC(=O)CC23CC4CC(CC(C4)C2)C3)C1 [Compound 169] | ++ (compound exhibited 25-50% inhibition at 0.3 μM) |

| Compound | IL-1β % inhibition |
| --- | --- |
| O=C(CC12CC3CC(CC(C3)C1)C2)Nc1ncnc2c1CCN(S(=O)(=O)c1ccccc1F)C2 [Compound 166] | ++ (compound exhibited 25-50% inhibition at 0.3 μM) |
| O=C(CC12CC3CC(CC(C3)C1)C2)Nc1ncnc2c1CCN(Cc1cccc(F)c1)C2 [Compound 33] | + (compound exhibited 0-25% inhibition at 0.3 μM) |
| CC12CC3CC(C)(C1)CC(CC(=O)Nc1ncnc4c1CCN(Cc1ccc(F)cc1F)C4)(C3)C2 [Compound 374] | ++ (compound exhibited 25-50% inhibition at 0.3 μM) |
| N#Cc1ccc(CN2CCc3c(ncnc3NC(=O)CC34CC5CC(CC(C5)C3)C4)C2)cc1 [Compound 42] | + (compound exhibited 0-25% inhibition at 0.3 μM) |
| Cc1ccc(CN2CCc3c(ncnc3NC(=O)CC34CC5CC(CC(C5)C3)C4)C2)c2ccccc12 [Compound 112] | + (compound exhibited 0-25% inhibition at 0.3 μM) |
| CN1CCc2c(ncnc2NC(=O)CC2CCCCC2)C1 [Compound 26] | +++ (compound exhibited 50-75% inhibition at 0.3 μM) |
| O=C(CC12CC3CC(CC(C3)C1)C2)Nc1ncnc2c1CCN(C(=O)c1ccc3ccccc3n1)C2 [Compound 303] | +++ (compound exhibited 50-75% inhibition at 0.3 μM) |
| COc1ccccc1CCC(=O)Nc1ncnc2c1CCN(Cc1ccccn1)C2 [Compound 134] | + (compound exhibited 0-25% inhibition at 0.3 μM) |
| O=C(NCC1CCCCC1)c1ncnc2c1CCN(Cc1ccccc1Cl)C2 [Compound 50] | + (compound exhibited 0-25% inhibition at 0.3 μM) |
| COc1ccc(CN2CCc3c(ncnc3NC(=O)CC34CC5CC(CC(C5)C3)C4)C2)c(F)c1 [Compound 95] | ++++ (compound exhibited 75% or greater inhibition at 0.3 μM) |
| O=C(CC12CC3CC(CC(C3)C1)C2)Nc1ncnc2c1CCN(S(=O)(=O)c1ccc(Oc3cccnc3)cc1)C2 [Compound 174] | ++++ (compound exhibited 75% or greater inhibition at 0.3 μM) |
| COc1ccc(C(=O)N2CCc3c(ncnc3NC(=O)CC34CC5CC(CC(C5)C3)C4)C2)cc1F [Compound 310] | +++ (compound exhibited 50-75% inhibition at 0.3 μM) |
| CC12CC3(C)CC(C)(C1)CC(C(=O)Nc1ncnc4c1CCN(Cc1ccccc1)C4)(C2)C3 [Compound 346] | + (compound exhibited 0-25% inhibition at 0.3 μM) |
| CCN1CCc2c(ncnc2NC(=O)CC2CCCCC2)C1 [Compound 20] | + (compound exhibited 0-25% inhibition at 0.3 μM) |
| O=C(CC12CC3CC(CC(C3)C1)C2)Nc1ncnc2c1CCN(C(=O)c1ccccc1F)C2 [Compound 280] | +++ (compound exhibited 50-75% inhibition at 0.3 μM) |
| O=C(CC12CC3CC(CC(C3)C1)C2)Nc1ncnc2c1CCN(C(=O)C1CCCN1C(=O)C(F)(F)F)C2 (centres unmarked) [Compound 306] | + (compound exhibited 0-25% inhibition at 0.3 μM) |
| Cc1c(C(=O)N2CCc3c(ncnc3NC(=O)CC34CC5CC(CC(C5)C3)C4)C2)cnn1-c1ccccc1 [Compound 288] | + (compound exhibited 0-25% inhibition at 0.3 μM) |

Same assay, conditions: at 0.3 μM; THP-1 cells, BzATP-stimulated

| Compound | IL-1β % inhibition |
| --- | --- |
| O=C(COc1ccccc1)N1CCc2c(ncnc2NC(=O)C23CC4CC(CC(C4)C2)C3)C1 [Compound 421] | + (compound exhibited 0-25% inhibition at 0.3 μM) |
| N#Cc1cc(CN2CCc3c(ncnc3NC(=O)C34CC5CC(CC(C5)C3)C4)C2)ccc1F [Compound 595] | + (compound exhibited 0-25% inhibition at 0.3 μM) |
| O=C(Nc1ncnc2c1CCN(S(=O)(=O)c1ccccc1OC(F)(F)F)C2)C12CC3CC(CC(C3)C1)C2 [Compound 532] | + (compound exhibited 0-25% inhibition at 0.3 μM) |
| Cc1nc(S(=O)(=O)N2CCc3c(ncnc3NC(=O)C34CC5CC(CC(C5)C3)C4)C2)cn1C [Compound 499] | + (compound exhibited 0-25% inhibition at 0.3 μM) |
| O=C(c1cccnc1Oc1ccccc1)N1CCc2c(ncnc2NC(=O)C23CC4CC(CC(C4)C2)C3)C1 [Compound 446] | ++ (compound exhibited 25-50% inhibition at 0.3 μM) |
| O=C(c1ccccc1Cl)N1CCc2c(ncnc2NC(=O)C23CC4CC(CC(C4)C2)C3)C1 [Compound 464] | ++ (compound exhibited 25-50% inhibition at 0.3 μM) |
| CC(C)CCN1CCc2c(ncnc2NC(=O)C23CC4CC(CC(C4)C2)C3)C1 [Compound 583] | + (compound exhibited 0-25% inhibition at 0.3 μM) |
| Cc1ccc2occ(CN3CCc4c(ncnc4NC(=O)C45CC6CC(CC(C6)C4)C5)C3)c(=O)c2c1 [Compound 567] | ++ (compound exhibited 25-50% inhibition at 0.3 μM) |
| CC(C)(C)c1ccc(CN2CCc3c(ncnc3NC(=O)C34CC5CC(CC(C5)C3)C4)C2)cc1 [Compound 572] | ++++ (compound exhibited 75% or greater inhibition at 0.3 μM) |
| CCS(=O)(=O)N1CCc2c(ncnc2NC(=O)C23CC4CC(CC(C4)C2)C3)C1 [Compound 486] | + (compound exhibited 0-25% inhibition at 0.3 μM) |
| CCCS(=O)(=O)N1CCc2c(ncnc2NC(=O)C23CC4CC(CC(C4)C2)C3)C1 [Compound 485] | + (compound exhibited 0-25% inhibition at 0.3 μM) |
| O=C(Nc1ncnc2c1CCN(Cc1ccncc1)C2)C12CC3CC(CC(C3)C1)C2 [Compound 610] | + (compound exhibited 0-25% inhibition at 0.3 μM) |
| COc1ccc(OC)c(S(=O)(=O)N2CCc3c(ncnc3NC(=O)C34CC5CC(CC(C5)C3)C4)C2)c1 [Compound 549] | ++ (compound exhibited 25-50% inhibition at 0.3 μM) |
| O=C(c1cc(F)ccc1F)N1CCc2c(ncnc2NC(=O)C23CC4CC(CC(C4)C2)C3)C1 [Compound 451] | + (compound exhibited 0-25% inhibition at 0.3 μM) |
| O=C(Cc1ccc(F)cc1)N1CCc2c(ncnc2NC(=O)C23CC4CC(CC(C4)C2)C3)C1 [Compound 413] | ++ (compound exhibited 25-50% inhibition at 0.3 μM) |
| Cc1cc(C)cc(S(=O)(=O)N2CCc3c(ncnc3NC(=O)C34CC5CC(CC(C5)C3)C4)C2)c1 [Compound 550] | + (compound exhibited 0-25% inhibition at 0.3 μM) |
